Test results as given in patent US20260374756A1, “HETEROCYCLIC COMPOUNDS AS INHIBITORS OF MONOACYLGLYCEROL LIPASE (MAGL)” (Hoffmann-La Roche Inc., priority 2022, published 2026).

biological target: T1, hMAGL (Homo sapiens, UniProt Q99685); assay: 2-AG assay: MAGL inhibition, hydrolysis of 2-arachidonoylglycerol to arachidonic acid followed by mass spectrometry; format: biochemical
T1 sequence (Q99685 1-303): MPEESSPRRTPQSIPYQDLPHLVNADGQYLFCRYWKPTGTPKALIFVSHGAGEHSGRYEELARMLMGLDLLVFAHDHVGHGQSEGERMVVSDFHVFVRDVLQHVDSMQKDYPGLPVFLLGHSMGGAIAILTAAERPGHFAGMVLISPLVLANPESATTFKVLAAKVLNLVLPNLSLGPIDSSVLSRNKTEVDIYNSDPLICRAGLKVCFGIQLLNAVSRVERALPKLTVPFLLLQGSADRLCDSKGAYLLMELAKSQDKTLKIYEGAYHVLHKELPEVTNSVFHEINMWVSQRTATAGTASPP
Experimental: Compounds of formula (I) were profiled for MAGL inhibitory activity by determining the enzymatic activity by following the hydrolysis of the natural substrate 2-arachidonoylglycerol (2-AG) resulting in arachidonic acid, which can be followed by mass spectrometry. This assay is hereinafter abbreviated “2-AG assay”. The 2-AG assay was carried out in 384 well polypropylene assay plates. […] Compound dilutions were added to MAGL protein in assay buffer (50 mM TRIS, 1 mM EDTA, 0.01% (v/v) Tween-20, 2.5% (v/v) DMSO). After shaking, the plate was incubated for 15 min at RT. To start the reaction, 2-arachidonoylglycerol in assay buffer was added. The final concentrations in the assay was […] for MAGL protein and 8 μM 2-arachidonoylglyerol. After shaking and 30 min incubation at RT, the reaction was quenched by the addition of two assay volumes of acetonitrile containing 4 μM of d8-arachidonic acid. The amount of arachidonic acid formed was traced by an online SPE system (Agilent Rapidfire) coupled to a triple quadrupole mass spectrometer. A C18 SPE cartridge (Agilent G9205A) was used in an acetonitrile/water liquid setup. […] The activity of the compounds was calculated based on the ratio of intensities [arachidonic acid/d8-arachidonic acid].

SMILES | IC50
CC(C)(C)c1ncc(CN2CC3(C2)CN(C(=O)N2CC4(CC(n5cnc(C6CC6)n5)C4)C2)C3)s1 [Example 57, [6-[(2-tert-butylthiazol-5-yl)methyl]-2,6-diazaspiro[3.3]heptan-2-yl]-[6-(3-cyclopropyl-1,2,4-triazol-1-yl)-2-azaspiro[3.3]heptan-2-yl]methanone] | 5.1 nM
CC(C)(C)c1ncc(CN2CC3(C2)CN(C(=O)N2CC4(CC(n5cnc(C6(O)CC6)n5)C4)C2)C3)s1 [Example 58, [6-[(2-tert-butylthiazol-5-yl)methyl]-2,6-diazaspiro[3.3]heptan-2-yl]-[6-[3-(1-hydroxycyclopropyl)-1,2,4-triazol-1-yl]-2-azaspiro[3.3]heptan-2-yl]methanone] | 8.12 nM
Cn1cc(OC2CC3(C2)CN(C(=O)N2CC4(CC(n5cnc(C6(O)CC6)n5)C4)C2)C3)c(C(F)(F)F)n1 [Example 59, [6-[3-(1-hydroxycyclopropyl)-1,2,4-triazol-1-yl]-2-azaspiro[3.3]heptan-2-yl]-[6-[1-methyl-3-(trifluoromethyl)pyrazol-4-yl]oxy-2-azaspiro[3.3]heptan-2-yl]methanone] | 55.4 nM
O=C(N1CC2(CC(Cn3cc(C4(C(F)(F)F)CC4)cn3)C2)C1)N1CC2(CC(n3cnc(C4(O)CC4)n3)C2)C1 [Example 60, [6-[3-(1-hydroxycyclopropyl)-1,2,4-triazol-1-yl]-2-azaspiro[3.3]heptan-2-yl]-[6-[[4-[1-(trifluoromethyl)cyclopropyl]pyrazol-1-yl]methyl]-2-azaspiro[3.3]heptan-2-yl]methanone] | 1.63 nM
O=C(N1CC2(CC(Cc3cn(C4CC4)nc3C(F)(F)F)C2)C1)N1CC2(CC(n3cnc(C(F)(F)F)n3)C2)C1 [Example 61, [6-[[1-cyclopropyl-3-(trifluoromethyl)pyrazol-4-yl]methyl]-2-azaspiro[3.3]heptan-2-yl]-[6-[3-(trifluoromethyl)-1,2,4-triazol-1-yl]-2-azaspiro[3.3]heptan-2-yl]methanone] | 0.26 nM
O=C(N1CC2(CC(Cc3cn(C4CC4)nc3C(F)(F)F)C2)C1)N1CC2(CC(n3cnc(C4CC4)n3)C2)C1 [Example 62, [6-(3-cyclopropyl-1,2,4-triazol-1-yl)-2-azaspiro[3.3]heptan-2-yl]-[6-[[1-cyclopropyl-3-(trifluoromethyl)pyrazol-4-yl]methyl]-2-azaspiro[3.3]heptan-2-yl]methanone] | 0.14 nM
O=C(N1CC2(CC(Cc3cn(C4CC4)nc3C(F)(F)F)C2)C1)N1CC2(CC(n3cnc(C4(O)CC4)n3)C2)C1 [Example 63, [6-[[1-cyclopropyl-3-(trifluoromethyl)pyrazol-4-yl]methyl]-2-azaspiro[3.3]heptan-2-yl]-[6-[3-(1-hydroxycyclopropyl)-1,2,4-triazol-1-yl]-2-azaspiro[3.3]heptan-2-yl]methanone] | 18.3 nM
Cn1ncc(C(F)(F)F)c1CN1CCC2(CC1)CN(C(=O)N1CC3(CC(c4cc(C5CC5)n[nH]4)C3)C1)C2 [Example 64, [6-(3-cyclopropyl-1H-pyrazol-5-yl)-2-azaspiro[3.3]heptan-2-yl]-[7-[[2-methyl-4-(trifluoromethyl)pyrazol-3-yl]methyl]-2,7-diazaspiro[3.5]nonan-2-yl]methanone] | 0.32 nM
Cn1ncc(C(F)(F)F)c1CN1CCC2(CC1)CN(C(=O)N1CC3(CC(n4cnc(C(F)(F)F)n4)C3)C1)C2 [Example 65, [7-[[2-methyl-4-(trifluoromethyl)pyrazol-3-yl]methyl]-2,7-diazaspiro[3.5]nonan-2-yl]-[6-[3-(trifluoromethyl)-1,2,4-triazol-1-yl]-2-azaspiro[3.3]heptan-2-yl]methanone] | 0.87 nM
Cn1ncc(C(F)(F)F)c1CN1CCC2(CC1)CN(C(=O)N1CC3(CC(n4cnc(C5CC5)n4)C3)C1)C2 [Example 66, [6-(3-cyclopropyl-1,2,4-triazol-1-yl)-2-azaspiro[3.3]heptan-2-yl]-[7-[[2-methyl-4-(trifluoromethyl)pyrazol-3-yl]methyl]-2,7-diazaspiro[3.5]nonan-2-yl]methanone] | 0.41 nM
Cn1ncc(C(F)(F)F)c1CN1CCC2(CC1)CN(C(=O)N1CC3(CC(n4cnc(C5(O)CC5)n4)C3)C1)C2 [Example 67, [6-[3-(1-hydroxycyclopropyl)-1,2,4-triazol-1-yl]-2-azaspiro[3.3]heptan-2-yl]-[7-[[2-methyl-4-(trifluoromethyl)pyrazol-3-yl]methyl]-2,7-diazaspiro[3.5]nonan-2-yl]methanone] | 2.12 nM
Cc1cc(C(F)(F)F)nn1CC1CC2(C1)CN(C(=O)N1CC3(CC(n4cnc(C(F)(F)F)n4)C3)C1)C2 [Example 68, [6-[[5-methyl-3-(trifluoromethyl)pyrazol-1-yl]methyl]-2-azaspiro[3.3]heptan-2-yl]-[6-[3-(trifluoromethyl)-1,2,4-triazol-1-yl]-2-azaspiro[3.3]heptan-2-yl]methanone] | 5.8 nM
Cc1cc(C(F)(F)F)nn1CC1CC2(C1)CN(C(=O)N1CC3(CC(n4cnc(C5CC5)n4)C3)C1)C2 [Example 69, [6-(3-cyclopropyl-1,2,4-triazol-1-yl)-2-azaspiro[3.3]heptan-2-yl]-[6-[[5-methyl-3-(trifluoromethyl)pyrazol-1-yl]methyl]-2-azaspiro[3.3]heptan-2-yl]methanone] | 4.09 nM
Cc1cc(C(F)(F)F)nn1CC1CC2(C1)CN(C(=O)N1CC3(CC(n4cnc(C5(O)CC5)n4)C3)C1)C2 [Example 70] | 131 nM
Cc1cc(C(F)(F)F)n(CC2CC3(C2)CN(C(=O)N2CC4(CC(n5cnc(C(F)(F)F)n5)C4)C2)C3)n1 [Example 71, [6-[[3-methyl-5-(trifluoromethyl)pyrazol-1-yl]methyl]-2-azaspiro[3.3]heptan-2-yl]-[6-[3-(trifluoromethyl)-1,2,4-triazol-1-yl]-2-azaspiro[3.3]heptan-2-yl]methanone] | 3.7 nM
Cc1cc(C(F)(F)F)n(CC2CC3(C2)CN(C(=O)N2CC4(CC(n5cnc(C6CC6)n5)C4)C2)C3)n1 [Example 72, [6-(3-cyclopropyl-1,2,4-triazol-1-yl)-2-azaspiro[3.3]heptan-2-yl]-[6-[[3-methyl-5-(trifluoromethyl)pyrazol-1-yl]methyl]-2-azaspiro[3.3]heptan-2-yl]methanone] | 3.09 nM
Cc1cc(C(F)(F)F)n(CC2CC3(C2)CN(C(=O)N2CC4(CC(n5cnc(C6(O)CC6)n5)C4)C2)C3)n1 [Example 73] | 110 nM
O=C(N1CC2(CC(Cn3cnc(C4(C(F)(F)F)CC4)n3)C2)C1)N1CC2(CC(c3cc(C4CC4)n[nH]3)C2)C1 [Example 74, [6-(3-cyclopropyl-1H-pyrazol-5-yl)-2-azaspiro[3.3]heptan-2-yl]-[6-[[3-[1-(trifluoromethyl)cyclopropyl]-1,2,4-triazol-1-yl]methyl]-2-azaspiro[3.3]heptan-2-yl]methanone] | 0.42 nM
O=C(N1CC2(CC(Cn3cnc(C4(C(F)(F)F)CC4)n3)C2)C1)N1CC2(CC(n3cnc(C4(O)CC4)n3)C2)C1 [Example 75, [6-[3-(1-hydroxycyclopropyl)-1,2,4-triazol-1-yl]-2-azaspiro[3.3]heptan-2-yl]-[6-[[3-[1-(trifluoromethyl)cyclopropyl]-1,2,4-triazol-1-yl]methyl]-2-azaspiro[3.3]heptan-2-yl]methanone] | 7.62 nM
O=C(N1CC2(CC(n3cnc(C(F)(F)F)n3)C2)C1)N1CC2(CN(Cc3snnc3C3CCC3)C2)C1 [Example 76, [6-[(4-cyclobutylthiadiazol-5-yl)methyl]-2,6-diazaspiro[3.3]heptan-2-yl]-[6-[3-(trifluoromethyl)-1,2,4-triazol-1-yl]-2-azaspiro[3.3]heptan-2-yl]methanone] | 5.73 nM
O=C(N1CC2(CC(n3cnc(C4CC4)n3)C2)C1)N1CC2(CN(Cc3snnc3C3CCC3)C2)C1 [Example 77, [6-[(4-cyclobutylthiadiazol-5-yl)methyl]-2,6-diazaspiro[3.3]heptan-2-yl]-[6-(3-cyclopropyl-1,2,4-triazol-1-yl)-2-azaspiro[3.3]heptan-2-yl]methanone] | 1.62 nM
O=C(N1CC2(CC(n3cnc(C4(O)CC4)n3)C2)C1)N1CC2(CN(Cc3snnc3C3CCC3)C2)C1 [Example 78, [6-[(4-cyclobutylthiadiazol-5-yl)methyl]-2,6-diazaspiro[3.3]heptan-2-yl]-[6-[3-(1-hydroxycyclopropyl)-1,2,4-triazol-1-yl]-2-azaspiro[3.3]heptan-2-yl]methanone] | 22.9 nM
O=C(N1CC2(CCN(Cc3cc(C(F)(F)F)on3)CC2)C1)N1CC2(CC(n3cnc(C(F)(F)F)n3)C2)C1 [Example 79, [7-[[5-(trifluoromethyl)isoxazol-3-yl]methyl]-2,7-diazaspiro[3.5]nonan-2-yl]-[6-[3-(trifluoromethyl)-1,2,4-triazol-1-yl]-2-azaspiro[3.3]heptan-2-yl]methanone] | 71.4 nM
O=C(N1CC2(CCN(Cc3cc(C(F)(F)F)on3)CC2)C1)N1CC2(CC(n3cnc(C4CC4)n3)C2)C1 [Example 80, [6-(3-cyclopropyl-1,2,4-triazol-1-yl)-2-azaspiro[3.3]heptan-2-yl]-[7-[[5-(trifluoromethyl)isoxazol-3-yl]methyl]-2,7-diazaspiro[3.5]nonan-2-yl]methanone] | 8.61 nM
